Like-named read-outs stand apart in the source and are kept apart here.
Key:
P. falciparum 3D7 [1] = test: DAPI stain fluorescent high content imaging assay, P. falciparum 3D7 (confirmatory screen, Avery); conditions: Plasmodium falciparum; for EC50: 3D7, read-out: EC50_nM; for inhibition of growth at 5 µM: 3D7, read-out: percent_inh @ 5 uM
P. falciparum 3D7 [2] = test system: P. falciparum 3D7; parameters: method as in ChEMBL-NTD; conditions: ref ChEMBL-NTD, cited from earlier work
[3] = original screening data, source (GSK, GNF, StJude), several values separated by ';' in order of sources
[4] = values follow the order of the source (GNF; GSK; StJude)

| Structure (SMILES) | EC50 (P. falciparum 3D7 [1]) [nM] | inhibition of growth at 5 µM (P. falciparum 3D7 [1]) [%] | further results |
| --- | --- | --- | --- |
| CCOc1cc2c(cc1OCC)C(c1cc(C)c(O)c(C)c1)NCC2 (centres unmarked) [MMV000483] | 683 | 97 | EC50 (P. falciparum 3D7 [2]; [3]): 1830 nM |
| Fc1ccc2[nH]c3c(NCCCN4CCOCC4)ncnc3c2c1 [MMV019871] | 345 | 98 | EC50 (P. falciparum 3D7 [2]; source GSK (TCMDC id)): 714 nM |
| O=C(CSc1ccc2nnc(-c3cccc(F)c3)n2n1)Nc1ccc2c(c1)OCO2 [MMV665918] |  | 92 | EC50 (P. falciparum 3D7 [2]; source GNF): 2110 nM |
| COc1cc(C(=O)Nc2ccc(-c3nc4ccccc4[nH]3)cc2)cc(OC)c1OC [MMV665898] | 1220 | 95 | EC50 (P. falciparum 3D7 [2]; [4]): 982 nM |
| CCCCCCc1cc2cc(-c3csc(C=Cc4ccccc4)n3)c(=O)oc2cc1O [MMV666692] | 387 | 92 | EC50 (P. falciparum 3D7 [2]; [4]): 970 nM |
| CCn1c(CN2CCN(Cc3ccccc3)CC2)nc2cc(NC(=O)c3cccs3)ccc21 [MMV020439] | 512 | 97 | EC50 (P. falciparum 3D7 [2]; source GSK (TCMDC id)): 402 nM |
| O=C(Nc1ccc(-c2nc3cc4ccccc4cc3[nH]2)cc1)c1cccc(Br)c1 [MMV019241] | 450 | 93 | EC50 (P. falciparum 3D7 [2]; source GSK (TCMDC ids)): 363 nM |
| Cc1ccc(-c2cc3c(nn2)-c2ccccc2C3=O)cc1 [MMV666021] | 94.4 | 99 | EC50 (P. falciparum 3D7 [2]; source GNF): 2000 nM |
| Oc1ccc(Br)cc1CN1CCN(Cc2cccc(F)c2)CC1 [MMV000356] | 1030 |  | EC50 (P. falciparum 3D7 [2]; [3]): 1400 nM |
| Nc1ccc(-c2nc3cc(Oc4ccc(Oc5ccc6[nH]c(-c7ccc(N)cc7)nc6c5)cc4)ccc3[nH]2)cc1 [MMV011895] | 842 | 97 | EC50 (P. falciparum 3D7 [2]; source GNF): 288 nM |
| CC(Oc1ccc(NC(=O)c2cccs2)cc1)C(=O)c1ccc(Cl)cc1 (centres unmarked) [MMV665886] | 1030 | 87 | EC50 (P. falciparum 3D7 [2]; [4]): 774 nM |
| COc1ccccc1C(=O)ON=C(N)Cc1cccc2ccccc12 [MMV666686] | 814 | 97 | EC50 (P. falciparum 3D7 [2]; [4]): 352 nM |
| Cc1cc(C)c2c(c1)OCN(Cc1ccccc1Cl)C2 [MMV006558] | 268 | 98 | EC50 (P. falciparum 3D7 [2]; source GNF (GNF-Pf id)): 192 nM |
| CN(C)CCCNCc1ccc(-c2ccc(F)c(Cl)c2)o1 [MMV020505] | 876 | 96 | EC50 (P. falciparum 3D7 [2]; source GSK (TCMDC ids)): 802 nM |
| Oc1ccc(Br)cc1CN1CCN(Cc2ccc(Cl)cc2)CC1 [MMV665809] |  | 97 | EC50 (P. falciparum 3D7 [2]; [4]): 1480 nM |
| CCC(c1ccccc1)c1nn2c(-c3cccs3)nnc2s1 (centres unmarked) [MMV665876] | 259 | 99 | EC50 (P. falciparum 3D7 [2]; source GSK (TCMDC id)): 167 nM |
| CNCCCNc1ccnc2cc(Cl)ccc12 [MMV020500] | 82.2 | 98 | EC50 (P. falciparum 3D7 [2]; source GSK (TCMDC id)): 62.4 nM |
| COc1ccc2c(c1OC)C(=O)N1c3ccccc3N=C(c3ccc(C)cc3)CC21 (centres unmarked) [MMV000917] | 1240 | 93 | EC50 (P. falciparum 3D7 [2]; source StJude (SJ ids)): 2530 nM |
| Cc1ccc(C)c(-c2csc(Nc3ccc(C)c(C)c3)n2)c1 [MMV007654] |  | 94 | EC50 (P. falciparum 3D7 [2]; [4]): 493 nM |
| Cc1cc(=O)oc2c1ccc1oc(C(=O)c3ccccc3)c(C)c12 [MMV006753] |  | 94 | EC50 (P. falciparum 3D7 [2]; source GNF (GNF-Pf ids)): 441 nM |

| Structure (SMILES) | EC50 (P. falciparum 3D7 [1]) [nM] | inhibition of growth at 5 µM (P. falciparum 3D7 [1]) [%] | further results |
| --- | --- | --- | --- |
| COc1ccc(-c2nonc2NC(=O)c2cccc(C)c2)cc1OC [MMV665890] |  | 95 | EC50 (P. falciparum 3D7 [2]; [3]): 806 nM |
| CCCOCc1cc(CN2CCN(c3cccc(Cl)c3)CC2)c(O)c2ncccc12 [MMV000787] | 407 | 97 | EC50 (P. falciparum 3D7 [2]; source StJude (SJ ids)): 1100 nM |
| CCCc1c(C)nc2ccccc2c1O [MMV666081] |  | 88 | EC50 (P. falciparum 3D7 [2]; source GNF): 630 nM |
| O=C(Nc1ccccc1O)c1ccc(-c2ccc(Cl)cc2Cl)o1 [MMV665948] |  | 97 | EC50 (P. falciparum 3D7 [2]; source StJude): 2460 nM |
| CCN(CC)c1cc(C)c2cc(NC(=O)c3cccc(OC)c3)ccc2n1 [MMV000498] |  | 97 | EC50 (P. falciparum 3D7 [2]; source StJude): 4770 nM |
| CCn1c(SCC(=O)Nc2cc(C(F)(F)F)ccc2Cl)nc2ccccc2c1=O [MMV666103] | 1000 | 91 | EC50 (P. falciparum 3D7 [2]; source GSK): 397 nM |
| O=C1CC(O)(C(F)(F)C(F)(F)F)Oc2ccccc21 (centres unmarked) [MMV000972] |  | 95 | EC50 (P. falciparum 3D7 [2]; [3]): 2570 nM |
| O=C(Nc1cccc(-c2nc3ccccc3[nH]2)c1)c1cccc(NC(=O)c2ccco2)c1 [MMV665883] | 745 | 95 | EC50 (P. falciparum 3D7 [2]; [3]): 360 nM |
| CC(C)(C)CC(C)(C)NCC(O)COc1ccc2c(c1)CCC2 (centres unmarked) [MMV665817] |  | 78 | EC50 (P. falciparum 3D7 [2]; source StJude): 4420 nM |
| O=c1nc(C=Cc2ccc(Br)cc2)oc2ccccc12 [MMV666599] |  | 94 | EC50 (P. falciparum 3D7 [2]; source GSK (TCMDC ids)): 1050 nM |
| O=C(Cc1ccccc1)NC(c1ccc(Cl)cc1)c1c(O)ccc2ccccc12 (centres unmarked) [MMV665972] | 1140 | 97 | EC50 (P. falciparum 3D7 [2]; [4]): 15000 nM |
| Cc1ccc(S(=O)(=O)c2c(COC(=O)c3cccc(C)c3)c(-c3ccccc3)nn2C)cc1 [MMV665936] |  | 95 | EC50 (P. falciparum 3D7 [2]; source GNF (GNF-Pf ids)): 8400 nM |
| N=c1c2ccccc2nnn1-c1cccc(C(F)(F)F)c1 [MMV665923] |  | 83 | EC50 (P. falciparum 3D7 [2]; source GNF (GNF-Pf ids)): 134 nM |
| Cc1ccc(OCCCCCCNCCO)c(C)c1 [MMV666020] |  | 49 | EC50 (P. falciparum 3D7 [2]; source GNF (GNF-Pf ids)): 1970 nM |
| O=C(Nc1ccc(Cl)cc1)N1CCN(c2ccc3nncn3n2)CC1 [MMV665917] |  | 62 | EC50 (P. falciparum 3D7 [2]; source GNF): 2060 nM |
| COc1ccc(Nc2nc(NN=Cc3ccc(O)cc3)nc(Nc3ccc([N+](=O)[O-])cc3)n2)cc1 [MMV666689] | 532 | 98 | EC50 (P. falciparum 3D7 [2]; source GSK): 1120 nM |
| CCc1c(C)c(=N)c2ccccc2n1C [MMV006278] | 378 | 76 | EC50 (P. falciparum 3D7 [2]; source GNF (GNF-Pf id)): 701 nM |
| FC(F)(F)c1cccc(Nc2nc3ccccc3nc2Nc2cccc(C(F)(F)F)c2)c1 [MMV665794] | 313 | 99 | EC50 (P. falciparum 3D7 [2]; source GSK (TCMDC ids)): 137 nM |
| Cc1ccc(Nc2nc(-c3ccccn3)cs2)cc1 [MMV007907] | 350 | 79 | EC50 (P. falciparum 3D7 [2]; source GNF): 407 nM |
| CCOc1ccc(C=Cc2nc(=O)c3ccccc3o2)cc1 [MMV665940] | 560 | 95 | EC50 (P. falciparum 3D7 [2]; source StJude): 188 nM |

| Structure (SMILES) | EC50 (P. falciparum 3D7 [1]) [nM] | inhibition of growth at 5 µM (P. falciparum 3D7 [1]) [%] | further results |
| --- | --- | --- | --- |
| OC1=C2C(=Nc3ccccc3SC2c2ccc(Br)cc2)c2ccccc21 (centres unmarked) [MMV007127] | 567 | 97 | EC50 (P. falciparum 3D7 [2]; source GNF (GNF-Pf ids)): 337 nM |
| OC1CCCCC1C1(NC(=S)Nc2ccccc2)CCCCC1 (centres unmarked) [MMV665980] |  | 59 | EC50 (P. falciparum 3D7 [2]; source GNF (GNF-Pf ids)): 211 nM |
| O=C(Nc1ccc(F)c(Cl)c1)Nc1ccc(Cl)c(Cl)c1 [MMV665953] | 2060 | 95 | EC50 (P. falciparum 3D7 [2]; source StJude): 5410 nM |
| O=C(CCl)NCCOc1ccc(Cl)cc1Cl [MMV665927] | 555 | 94 | EC50 (P. falciparum 3D7 [2]; [4]): 538 nM |
| CCCCNc1nc(NC(C)(C)C)nc(NC(C)(C)C)n1 [MMV665864] | 706 | 98 | EC50 (P. falciparum 3D7 [2]; [4]): 2160 nM |
| CCOC(=O)C1(Cc2ccccc2)CCN(Cc2cccc(OC)c2O)CC1 [MMV666109] |  | 95 | EC50 (P. falciparum 3D7 [2]; source StJude (SJ ids)): 2290 nM |
| CCCN(CCC)CCCNC(=O)c1cc2c(-c3ccc(OC)c(OC)c3)nn(C)c2s1 [MMV000561] | 1430 | 98 | EC50 (P. falciparum 3D7 [2]; [3]): 4040 nM |
| OC(CNC1CCCCC1)Cn1c2ccc(I)cc2c2cc(I)ccc21 (centres unmarked) [MMV665882] | 466 | 97 | EC50 (P. falciparum 3D7 [2]; [4]): 337 nM |
| CN(C)CCNc1cc(-c2ccccc2)nc2ccccc12 [MMV006704] | 4000 |  | inhibition of growth at 2 µM (P. falciparum 3D7 [1]; 3D7, read-out: percent_inh @ 2 uM): 92%; EC50 (P. falciparum 3D7 [2]; [3]): 692 nM |
| CCn1c2c(c(=N)c3c1CCC3)CCCC2 [MMV000340] | 694 | 77 | EC50 (P. falciparum 3D7 [2]; [4]): 3120 nM |
| OC(CNC1CCCCC1)Cn1c2ccccc2c2ccccc21 (centres unmarked) [MMV009063] | 293 | 93 | EC50 (P. falciparum 3D7 [2]; source GNF (GNF-Pf id)): 483 nM; EC50 (P. falciparum 3D7 [2]; source GSK (TCMDC id)): 991 nM |
| Cn1c(C(=O)c2cccc3ccccc23)nc2ccccc21 [MMV665824] |  | 89 | EC50 (P. falciparum 3D7 [2]; source GNF): 6.92 nM |
| Cc1ccc2cc3c(N)c4c(C)ccc(C)c4nc3nc2c1 [MMV666079] | 1310 | 98 | EC50 (P. falciparum 3D7 [2]; source GNF (GNF-Pf ids)): 431 nM |
| COc1cccc(NC(=O)[C@H](C(C)C)n2c(=O)[nH]c3ccccc3c2=O)c1 [MMV665878] | 139 | 99 | EC50 (P. falciparum 3D7 [2]; source GSK (TCMDC id)): 266 nM |
| COc1ccc(CNC2CCN(c3ccc(NC(=O)c4cccc(Cl)c4)cc3)CC2)cc1OC [MMV666067] | 663 | 97 | EC50 (P. falciparum 3D7 [2]; source GSK): 1020 nM |
| CC(C)(C)c1ccc(C2CC3=Nc4ccccc4N(C(=O)c4ccccc4Cl)C(c4ccc(F)cc4)C3=C(O)C2)cc1 (centres unmarked) [MMV011436] | 946 | 96 | EC50 (P. falciparum 3D7 [2]; [4]): 2630 nM |
| N=c1n(CCN2CCCCC2)c2ccccc2n1CC(O)c1cccc(Br)c1 (centres unmarked) [MMV665902] | 893 | 98 | EC50 (P. falciparum 3D7 [2]; source GSK): 1140 nM |
| CC1CCN(Cc2ccc(NC(=O)c3cc4ccc5cccnc5c4[nH]3)cc2)CC1 [MMV020549] | 274 | 97 | EC50 (P. falciparum 3D7 [2]; source GSK (TCMDC id)): 779 nM |
| Cc1ccccc1OCCSc1nc2ccc(NC(=O)c3ccccc3)cc2s1 [MMV007577] | 1120 | 93 | EC50 (P. falciparum 3D7 [2]; source GNF (GNF-Pf ids)): 9760 nM |
| COc1ccccc1N1CCN(C(CNS(=O)(=O)c2ccc(Cl)cc2)c2cccnc2)CC1 (centres unmarked) [MMV665914] |  | 93 | EC50 (P. falciparum 3D7 [2]; source StJude): 15000 nM |

From PMC3684613 (PLoS ONE, 2013)
